Measurements: patent US10220112B2, “Cyclic antimicrobial pseudopeptides and uses thereof” (INSERM (INSTITUT NATIONAL DE LA SANTE ET DE LA RECHERCHE …, priority 2014, dated 2019)
Read-outs that look alike come from different tables or passages of the source. Starred links: 1 amine or outer side, 2 acyl side, 3 side chain; linkers in the order of their positions; H or OH if unused. Non-standard residues stand in square brackets, D forms with d. Residues, ends and D or L forms follow the SMILES beside them. azaβ3(1Nal) = O=C(CN(Cc1cccc2ccccc12)N[*:1])[*:2]; X2 = O=C(CN(Cc1ccc2ccccc2c1)N[*:1])[*:2]; X1 = O=C(CN(CC(O)CO)N[*:1])[*:2]

Assays:
[1] = test system: human erythrocytes; assay: Lytic activity against human erythrocytes; type: cell-based; settings: for hemolysis at 0.2 mg/mL: 0.2 mg/mL (50 μM PepA1, 160 μM Pep11), value expected when choosing SEM concentration; for Human cells H50 (peptide concentration at which half of the human erythrocytes are lysed): Table 1, 2 h 37°C, maximal concentration 1 mg/mL; for hemolysis at the MIC: human erythrocytes, at the peptide's MIC; for Human cells % hemolysis at 500 μM / Human cells H50: Table 2; for Human cells H50: maximal concentration 500 μM
Method: Human blood was collected from EFS (‘Etablissement Francais du Sang’) in Rennes (France). […] After centrifugation, the absorbance of the supernatant was measured at 414 nm. Three wells were positive controls, where the RBC were mixed with water 1% Triton X-100, in these wells the totality of RBC were hemolyzed and the release of hemoglobin was considered to be 100%. Three wells were negative controls, where the RBC were mixed with PBS buffer, in these wells hemolysis was considered to be null. The percentage of hemolysis in each test well was calculated by comparing with controls. For each peptide, bloods from three different donors were tested.

[2] = test system: Escherichia coli strain K12 XL-Blue; settings: for E. coli MIC: strain K12 XL-Blue; for Minimum Bactericidal Concentration (MBC), E. coli: no colonies on BHI agar after 24 h 37°C
Method: (§1) The antibacterial activity of the synthesized peptides was measured using a standard microdilution assay. Two bacterial species were tested, Staphylococcus aureus strain Newman and Escherichia coli strain K12 XL-Blue. Bacterial strains were subcultured in Mueller-Hinton broth. […] Bacteria were grown to an optical density (600 nm) of 0.5 and diluted 10^3 times in MH broth. Cell density in wells was 10^5 cfu/mL. 100 μL of this suspension was mixed with 100 μL of 2-fold serial dilutions of peptides in the well of a microtitre plate. Purified peptides were first dissolved in appropriate solvent to a final concentration of 2 mg/mL, in the microtitre plate, dilutions were made in MH broth from 1 to 0.004 mg/mL. […] Results obtained in massic concentrations were converted to molar concentrations for proper comparisons. Tests were performed in triplicate.
(§2) The results presented in Table 2 below were obtained in triplicate as described in the case of Table 1 except that the starting concentration was […] instead of 1 mg/mL.

[3] = test system: Staphylococcus aureus strain Newman; settings: for S. aureus MIC: strain Newman; for Minimum Bactericidal Concentration (MBC), S. aureus: no colonies on BHI agar after 24 h 37°C
Method: as §1, §2

[4] = Peptides stability in human sera (RP-HPLC)
Method: Peptides stability in human sera. […] The initial time was recorded, and at known time intervals, 100 μL of reaction solution was removed and quenched by adding 200 μL of 95% EtOH and adjusted at pH=2 to eliminate the effect of peptides adsorption to the protein of the human serum. The cloudy reaction sample was cooled (4° C.) for 15 minutes and then spun at 14 000 rpm (Eppendorf centrifuge) for 4 minutes to pellet the precipitated serum proteins.
The different peptides were incubated with human serum up to 10 hours, and their stability was analyzed and their half-lives determined by RP-HPLC (FIG. 1).

[5] = test system: VISA strain S. aureus Mu 50; settings: Table 2
[6] = test system: MRSA strain S. aureus N315; settings: Table 2
[7] = Table 1, 20 h 37°C, maximal concentration 1 mg/mL
[8] = Table 2, starting concentration 500 μM

Molecule: H-MLIFVHIIAPVISGCAIAFFSYWLSRRNTK-NH2 [PepA1, reference compound]
- hemolysis at 0.2 mg/mL [1]: 50%
- Human cells H50 (peptide concentration at which half of the human erythrocytes are lysed) [1]: 70 µM
- hemolysis at the MIC [1]: 20%
- E. coli MIC [2, 7]: 8 µM
- Minimum Bactericidal Concentration (MBC), E. coli [2]: 16 µM
- S. aureus MIC [3, 7]: 8 µM
- Minimum Bactericidal Concentration (MBC), S. aureus [3]: 16 µM

Molecule: C[C@@H](O)[C@@H]1NC(=O)[C@H](CCCNC(=N)N)NC(=O)[C@H](CCCNC(=N)N)NC(=O)[C@H](CO)NC(=O)[C@H](Cc2c[nH]c3ccccc23)NC(=O)[C@H](Cc2ccccc2)NC(=O)[C@H](Cc2ccccc2)NC(=O)[C@H](CCCCN)NC1=O [Pep7] (cyclo(FFWSRRTK))
- Human cells H50 (peptide concentration at which half of the human erythrocytes are lysed) [1]: 14 µM
- E. coli MIC [2, 7]: 13 µM
- S. aureus MIC [3, 7]: 30 µM
- antibacterial activity, fold increase compared to Pep6 ([3]; species not specified): two-fold

Molecule: N=C(N)NCCC[C@@H]1NC(=O)[C@H](Cc2c[nH]c3ccccc23)NC(=O)[C@H](Cc2ccccc2)NC(=O)[C@H](Cc2ccccc2)NC(=O)[C@H](CCCCN)NC(=O)CN(CC(O)CO)NC(=O)[C@H](CCCNC(=N)N)NC1=O (stereo partly shown) [Pep11, (FFWRRΨHytK)] (cyclo(FFWRR[X1]K))
- fold less haemolytic on human erythrocytes than PepA1 [1]: about 12 fold
- fold less hemolytic compared to Pep10 [1]: six-fold
- hemolysis at 0.2 mg/mL [1]: 10%
- Human cells H50 (peptide concentration at which half of the human erythrocytes are lysed) [1]: 840 µM
- hemolysis at the MIC [1]: no hemolysis
- higher stability in human serum than the PepA1 parental peptide [4]: ~240 fold
- E. coli MIC [2, 7]: 3 µM
- Minimum Bactericidal Concentration (MBC), E. coli [2]: 8 µM
- S. aureus MIC [3, 7]: 7 µM
- fold higher antibacterial activity compared to Pep10 ([3]; against the two model bacteria): four-fold
- Minimum Bactericidal Concentration (MBC), S. aureus [3]: 16 µM

Molecule: H-FFWLSRRTK-NH2 [Pep4]
- Human cells H50 (peptide concentration at which half of the human erythrocytes are lysed) [1]: nd (not detectable at the maximal concentration tested (1 mg/mL, 300 to 900 μM))
- E. coli MIC [2, 7]: 100 µM
- S. aureus MIC [3, 7]: 200 µM

Molecule: CC(C)[C@@H]1NC(=O)[C@H](CCCNC(=N)N)NC(=O)[C@H](CCCNC(=N)N)NC(=O)CN(Cc2cccc3ccccc23)NC(=O)[C@H](Cc2ccccc2)NC(=O)CN(Cc2cccc3ccccc23)NC(=O)[C@H](CCCCN)NC1=O [Pep19, (Ψ1Nal-F-Ψ1Nal-RRVK)] (cyclo([azaβ3(1Nal)]F[azaβ3(1Nal)]RRVK))
- VISA MIC [5]: 4 µM
- Human cells % hemolysis at 500 μM [1]: 7%
- Human cells H50 [1]: nd (not detectable at the maximal concentration tested (500 μM))
- E. coli MIC [2, 8]: 4 µM
- S. aureus MIC [3, 8]: 4 µM
- MRSA MIC [6]: 4 µM

Molecule: CC(C)N1CC(=O)N[C@@H](CCCCN)C(=O)NN(Cc2ccc3ccccc3c2)CC(=O)N[C@@H](Cc2ccccc2)C(=O)NN(Cc2ccc3ccccc3c2)CC(=O)N[C@@H](CCCNC(=N)N)C(=O)N[C@@H](CCCNC(=N)N)C(=O)N1 [Pep16, (Ψ2Nal-F-Ψ2Nal-RR-ΨV-K)]
- Human cells H50 [1]: nd (not detectable at the maximal concentration tested (500 μM))

Molecule: CC(C)[C@@H]1NC(=O)[C@H](CCCNC(=N)N)NC(=O)[C@H](CCCNC(=N)N)NC(=O)[C@H](Cc2c[nH]c3ccccc23)NC(=O)[C@H](Cc2ccccc2)NC(=O)[C@H](Cc2ccccc2)NC(=O)[C@H](CCCCN)NC1=O [Pep18, (FFWRRVK)] (cyclo(FFWRRVK))
- VISA MIC [5]: 8 µM
- E. coli MIC [2, 8]: 4 µM
- S. aureus MIC [3, 8]: 4 µM
- MRSA MIC [6]: 8 µM

Molecule: H-FFSWLSRRTK-NH2 [Pep3]
- Human cells H50 (peptide concentration at which half of the human erythrocytes are lysed) [1]: nd (not detectable at the maximal concentration tested (1 mg/mL, 300 to 900 μM))
- E. coli MIC [2, 7]: 95 µM
- S. aureus MIC [3, 7]: 190 µM

Molecule: CC(C)C[C@@H]1NC(=O)[C@H](Cc2c[nH]c3ccccc23)NC(=O)[C@H](Cc2ccccc2)NC(=O)[C@H](Cc2ccccc2)NC(=O)[C@H](CCCCN)NC(=O)CN(CC(O)CO)NC(=O)[C@H](CCCNC(=N)N)NC(=O)[C@H](CCCNC(=N)N)NC1=O (stereo partly shown) [Pep10, (FFWLRRΨHytK)] (cyclo(FFWLRR[X1]K))
- lysis of human erythrocytes (in words) [1]: slightly hemolytic
- Human cells H50 (peptide concentration at which half of the human erythrocytes are lysed) [1]: 150 µM
- MIC, fold lower compared to Pep9, E. coli [2]: seven-fold
- E. coli MIC [2, 7]: 13 µM
- MIC, fold lower compared to Pep9, S. aureus [3]: four
- S. aureus MIC [3, 7]: 25 µM

Molecule: C[C@@H](O)[C@@H]1NC(=O)[C@H](CCCNC(=N)N)NC(=O)[C@H](CCCNC(=N)N)NC(=O)[C@H](Cc2c[nH]c3ccccc23)NC(=O)[C@H](Cc2ccccc2)NC(=O)[C@H](Cc2ccccc2)NC(=O)[C@H](CCCCN)NC1=O [Pep8, (FFWRRTK)] (cyclo(FFWRRTK))
- fold less hemolytic than Pep7 [1]: 10 fold
- Human cells H50 (peptide concentration at which half of the human erythrocytes are lysed) [1]: 160 µM
- fold more antibacterial than Pep7 ([3]; species not specified): ~3 fold

Molecule: N=C(N)NCCC[C@@H]1NC(=O)CN(Cc2ccc3ccccc3c2)NC(=O)[C@H](Cc2ccccc2)NC(=O)[C@H](Cc2ccccc2)NC(=O)[C@H](CCCCN)NC(=O)CN(CC(O)CO)NC(=O)[C@H](CCCNC(=N)N)NC1=O (stereo partly shown) [Pep15, (FFΨ2-Nal-RR-ΨHyt-K)] (cyclo(FF[X2]RR[X1]K))
- VISA MIC [5]: 2 µM
- Human cells % hemolysis at 500 μM [1]: 3%
- Human cells H50 [1]: nd (not detectable at the maximal concentration tested (500 μM))
- E. coli MIC [2, 8]: 2 µM
- S. aureus MIC [3, 8]: 2 µM
- MRSA MIC [6]: 2 µM

Molecule: CC(C)N(CC(=O)N[C@@H](CCCCN)C(N)=O)NC(=O)[C@H](CCCNC(=N)N)NC(=O)[C@H](CCCNC(=N)N)NC(=O)CN(Cc1ccc2ccccc2c1)NC(=O)[C@H](Cc1ccccc1)NC(=O)CN(N)Cc1ccc2ccccc2c1 [Pep21, H-Ψ2Nal-F-Ψ2Nal-RR-ΨV-K-NH2]
- Human cells H50 [1]: nd (not detectable at the maximal concentration tested (500 μM))

Molecule: H-FFWLSRTK-NH2 [Pep5]
- Human cells H50 (peptide concentration at which half of the human erythrocytes are lysed) [1]: nd (not detectable at the maximal concentration tested (1 mg/mL, 300 to 900 μM))
- MIC, fold higher than Pep4, E. coli [2]: two-fold
- MIC, fold higher than Pep4, S. aureus [3]: two-fold

Molecule: N=C(N)NCCC[C@@H]1NC(=O)[C@H](Cc2c[nH]c3ccccc23)NC(=O)[C@H](Cc2ccccc2)NC(=O)CN(Cc2cccc3ccccc23)NC(=O)[C@H](CCCCN)NC(=O)CN(CC(O)CO)NC(=O)[C@H](CCCNC(=N)N)NC1=O (stereo partly shown) [Pep12, (Ψ1Nal-FWRR-ΨHyt-K)] (cyclo([azaβ3(1Nal)]FWRR[X1]K))
- Human cells % hemolysis at 500 μM [1]: 98%
- Human cells H50 [1]: 220 µM
- E. coli MIC [2, 8]: 16 µM
- S. aureus MIC [3, 8]: 16 µM

Molecule: CC(C)C[C@H](NC(=O)[C@H](Cc1c[nH]c2ccccc12)NC(=O)[C@H](Cc1ccccc1)NC(=O)[C@@H](N)Cc1ccccc1)C(=O)N[C@@H](CCCNC(=N)N)C(=O)N[C@@H](CCCNC(=N)N)C(=O)NN(CC(=O)N[C@@H](CCCCN)C(N)=O)CC(O)CO (stereo partly shown) [Pep9, H-FFWLRRΨHytK-NH2] (H-FFWLRR[X1]K-NH2)
- lysis of human erythrocytes (in words) [1]: did not trigger detectable lysis
- Human cells H50 (peptide concentration at which half of the human erythrocytes are lysed) [1]: nd (not detectable at the maximal concentration tested (1 mg/mL, 300 to 900 μM))
- E. coli MIC [2, 7]: 100 µM
- MIC, fold lower compared to Pep4, S. aureus [3]: two-fold
- S. aureus MIC [3, 7]: 100 µM

Molecule: H-FFSYWLSRRTK-NH2 [Pep2]
- Human cells H50 (peptide concentration at which half of the human erythrocytes are lysed) [1]: nd (not detectable at the maximal concentration tested (1 mg/mL, 300 to 900 μM))
- E. coli MIC [2, 7]: 80 µM
- S. aureus MIC [3, 7]: 170 µM
